The text below walks through data of PMC6934184, “Selective DNA-PKcs inhibition extends the therapeutic index of localized radiotherapy and chemotherapy” (The Journal of Clinical Investigation, 2019).

For this test, the target named is T1, AKT3 (PKB gamma) (Homo sapiens, UniProt Q9Y243).
T1 construct: purchased Thermo Fisher Scientific (Life Technologies) SelectScreen
Nature of the test: SelectScreen Z'LYTE. The format is biochemical. The procedure, abridged:
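Compound tested in SelectScreen activity assays, Z'LYTE for CSF1R, CDK1/cyclin B and MAP2K6 and Adapta for CAMK1. ATP for CAMK1 was listed as 10, and Km app was used for CSF1R. Results are expressed in percent.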

T1 sequence (Q9Y243 whole entry): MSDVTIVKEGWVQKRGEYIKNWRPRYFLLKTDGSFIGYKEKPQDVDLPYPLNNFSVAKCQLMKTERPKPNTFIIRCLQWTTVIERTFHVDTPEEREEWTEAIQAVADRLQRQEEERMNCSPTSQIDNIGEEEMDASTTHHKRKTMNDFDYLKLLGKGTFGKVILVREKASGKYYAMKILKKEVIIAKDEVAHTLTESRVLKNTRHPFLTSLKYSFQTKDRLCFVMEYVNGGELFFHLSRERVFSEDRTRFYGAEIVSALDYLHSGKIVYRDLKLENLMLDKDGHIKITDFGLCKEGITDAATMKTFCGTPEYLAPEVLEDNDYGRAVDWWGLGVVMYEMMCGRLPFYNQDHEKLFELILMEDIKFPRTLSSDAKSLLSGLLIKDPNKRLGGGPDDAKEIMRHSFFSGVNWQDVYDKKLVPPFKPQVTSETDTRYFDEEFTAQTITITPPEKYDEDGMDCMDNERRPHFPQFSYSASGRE

With `CN(C(=O)CN1CCOCC1)c1ccc2sc3c(-c4cccc5c(=O)cc(N6CC7CCC(C6)O7)oc45)cccc3c2c1` [NU5455], the inhibition at 1 µM is -0.5%.

By inhibition is commonly meant the relative decrease from the control value, in per cent.
